Substitutions are numbered along the chain they refer to.
Experiments:
UBE2F [1] = target: T1, UBE2F (Homo sapiens, UniProt Q969M7); experiment: differential scanning fluorimetry, SYPRO orange; type: binding; conditions: tested as mesylate salt; 2 μM UBE2F, 1 °C/min from 25 to 95 °C; maximum of a dose series (printed 'up to')
T1 construct: recombinant, pET-28a with His-SUMO tag cleaved by Ulp1 (un-tagged), expressed in E. coli Rosetta 2(DE3) pLysS
T1 sequence (Q969M7 1-185): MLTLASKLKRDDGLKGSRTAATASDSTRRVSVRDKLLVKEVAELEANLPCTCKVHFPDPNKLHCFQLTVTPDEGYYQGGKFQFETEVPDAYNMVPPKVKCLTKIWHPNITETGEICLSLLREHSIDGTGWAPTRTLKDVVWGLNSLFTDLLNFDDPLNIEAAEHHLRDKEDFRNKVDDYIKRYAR

UBE2F [2] = target: T1, UBE2F; experiment: E2 NEDD8 thioester assay, iFluor 680-NEDD8, SDS-PAGE fluorescence scan; type: biochemical
UBE2F [3] = target: T2, UBE2F (Homo sapiens, UniProt Q969M7, K97A/K99A/R121A); experiment: thermal shift assay with Western blotting; type: binding; conditions: V98 pocket mutant
T2 construct: recombinant, pET-28a with His-SUMO tag cleaved by Ulp1 (un-tagged), expressed in E. coli Rosetta 2(DE3) pLysS
T2 sequence (Q969M7 1-185 K97A/K99A/R121A): T1 sequence (Q969M7 1-185) with K97A, K99A, R121A

UBE2F [4] = target: T3, UBE2F (Homo sapiens, UniProt Q969M7, F153A/D154A/H165A); experiment: thermal shift assay with Western blotting; type: binding; conditions: N152 pocket mutant
T3 construct: recombinant, pET-28a with His-SUMO tag cleaved by Ulp1 (un-tagged), expressed in E. coli Rosetta 2(DE3) pLysS
T3 sequence (Q969M7 1-185 F153A/D154A/H165A): T1 sequence (Q969M7 1-185) with F153A, D154A, H165A

dTm (UBE2F [1]): ~ 4 °C
IC50 (UBE2F [2]): ~49 µM
SMILES: Cc1ccc(C(=O)N2CCN(c3ccc(NC(=O)/C=C/c4c[nH]c5ncccc45)cc3)CC2)cc1 [iV26-9-10-4, HA-9104]
thermal stabilization (UBE2F [3]): V98 mutant was a little more thermo-stable and less stabilized by HA-9104
thermal stabilization (UBE2F [4]): N152 mutant was very thermo-stable and largely resistant to HA-9104-induced stabilization

— article PMC9576757, “A small molecule inhibitor of the UBE2F-CRL5 axis induces apoptosis and radiosensitization in lung cancer” (Signal Transduction and Targeted Therapy, 2022)
